Results published in paper PMC4944145, “New paradigms for understanding and step changes in treating active and chronic, persistent apicomplexan infections” (Scientific Reports, 2016).
≈ marks a conversion by molar mass, not a printed value. Entries after “also recorded” stand apart in the source; their conditions may differ. Like-named read-outs stand apart in the source and are kept apart here.

Assays:
[1] = test system: P. falciparum Dd2 parasites; test: Isobologram, modified fixed ratio drug combinations; assay type: cell-based, Plasmodium falciparum; settings: for interaction in combination with MJM170: Dd2 parasites, synergy combined FIC < 1.0, additivity FIC = 1.0, antagonism FIC > 1.0; for FIC CYG: MJM170 + CYG; for FIC ATV: MJM170 + ATV
Protocol: Isobologram experiments were performed in similar fashion utilizing the modified fixed ratio methodology^S76. […] EC50 values were calculated as above, and FICs were calculated for each drug combination as described^S76. Synergy was defined as an FIC < 1.0, additivity as FIC = 1.0, and antagonism as FIC > 1.0.

[2] = test system: T. gondii cysts; settings: cited from earlier work
[3] = test system: P. falciparum Dd2 parasite lines; test: P. falciparum whole-cell SYBR Green EC50, Dd2 and cytochrome b mutant / scDHODH lines; assay type: cell-based; settings: Plasmodium falciparum
Protocol: We used the following parasite line from the MR4 repository of the American Type Culture Collection (ATCC): Dd2 (MRA-156). Mutant Dd2 parasites harboring a G33A or G33V substitution in cytochrome b were as reported^S77. Dd2 parasites with a G131S mutation in cytochrome b and transgenic lines expressing a chromosomally integrated copy of the S. cerevisiae DHODH were utilized as previously described^S78. Parasites were cultured by standard methods in RPMI media supplemented with 5% human O^+ serum and 0.25% AlbuMAX® II (Life Technologies 11021–045)^S79.
Drug susceptibility was measured using the SYBR Green method^S75. Twelve point curves based on 2-fold dilutions of the test compound were carried out in triplicate each day and replicated on at least three different days. EC50 values were calculated using a nonlinear regression curve fit in Prism 6.0 for Mac (GraphPad Software, Inc.).

[4] = test system: T. gondii tachyzoites (RH-YFP strain); test: T. gondii tachyzoite assay (RH-YFP in HFF, fluorescence); assay type: cell-based; settings: Toxoplasma gondii
Protocol: (§1) Vivo-PMO (Vivo porter linked to morpholinos) to knock down cytochrome b and an off-target PPMO (Vivo porter) were utilized at concentrations of 5 and 10 μM as previously described with both cultures of RH-YFP tachyzoites and EGS^S14. Morpholino sequence for cytochrome b/c knockdown is 5′ […] 3′, and for unrelated sequence, off target, is 5′ […]-[…] 3′.
Human foreskin fibroblasts (HFF) were cultured on a flat, clear-bottomed, black 96-well plate to 90% to 100% confluence. IMDM (1x, [+] glutamine, [+] 25 mM HEPES, [+] Phenol red, 10% FBS [gibco, Denmark]) was removed from each well and replaced with IMDM-C(1x, [+] glutamine, [+] 25 mM HEPES, [−] Phenol red, 10% FBS)[Gibco, Denmark]). Type I RH parasites expressing Yellow Fluorescent Protein (RH-YFP) were lysed from host cells by double passage through a 27-gauge needle. Parasites were counted and diluted to 32,000/mL in IMDM-C. Fibroblast cultures were infected with 3200 tachyzoites of the Type I RH-YFP strain and returned to incubator at 37 °C for 1–2 hours to allow for infection ^S12–15;S18,19;S25. […] The plates were read using a fluorimeter (Synergy H4 Hybrid Reader, BioTek) To ascertain the amount of yellow fluorescent protein, in relative fluorescence units (RFU), as a measure of parasite burden after treatment. […] Data was collected using Gen5 software and analyzed with Excel.

[5] = test system: yeast with a mutation in the Qi site; settings: cited from earlier work
[6] = test system: S. cerevisiae wild type parental AD1-9 strain; test: S. cerevisiae growth inhibition (disk), wild type; assay type: cell-based, Saccharomyces cerevisiae; settings: glycerol medium, 1mM, 100, 5 and 1 μM
Protocol: Three S. cerevisiae strains were used: M221Q and M221F cytochrome b mutants and wild type. They share the same nuclear genetic background deriving from AD1–9 (kindly given by M.Ghislain, UCL, Belgium). AD1–9 harbors multiple deletions in the ABC transporter genes that render the strain more sensitive to drugs than standard yeast strains^S65.
Protocol from^S68: Yeast strains were grown over 48 hours at 33 °C in liquid YPG medium [1% yeast extract, 2%(wt/vol) peptone, and 3%(vol/vol) (glycerol). Cultures were diluted to an OD600 of 0.05 and grown for 2 hrs. Cultures were then combined with YPG containing 6% melted agar for a total volume of 15–20 mL and poured onto OmniTray single-well rectangular plates that measured 86 mm by 128 mm (ThermoScientific) . Filter paper disks (7 mm diameter, […]) were placed onto the cooled agar plates. […] A single disk with DMSO on each plate was used as a control. Plates were incubated at 33 °C. Images were obtained after 4 days using GelDoc XR Imaging System (BioRad) and Quantity One software. Drug effect was assessed by the presence and size of a zone of inhibition around the disks.

[7] = Mouse microsomal stability
[8] = Aqueous kinetic solubility PBS pH 7.4
[9] = test system: P. falciparum; test: P. falciparum in vitro assay (D6, TM91C235, W2, C2B strains); assay type: cell-based; settings: Plasmodium falciparum
Protocol: D6 is a drug sensitive strain from Sierra Leone, C235 is a multi-drug resistant strain from Thailand, W2 is a chloroquine resistant strain from Thailand, and C2B has resistance to a variety of drugs including atovaquone. These assays were performed as described^S74.

[10] = Human microsomal stability
[11] = HFF toxicity assay (WST-1); assay type: cell-based; settings: human, HFF cells (confluent monolayer)
Protocol: Toxicity assays were conducted using WST-1 cell proliferation reagent (Roche) as described^S12–15;S18,19. HFF were grown on a flat, clear-bottomed, black 96-well plate. Confluent HFF were treated with inhibitory compounds at concentrations equal to those being tested in challenge assays. Compounds were diluted in IMDM-C, and 20 μl were added to each designated well, with triplicates for each condition. A gradient of 2 fold-decreasing concentrations of DMSO in clear IMDM-C was used as a control. The plate was incubated for 72 hours at 37 °C. 10 μl of WST-1 reagent (Roche) were added to each well and the cells were incubated for 30 to 60 minutes. Absorbance was read using a fluorometer at 420 nm. A higher degree of color change (and absorbance) indicated mitochondrial activity and cell viability.

[12] = FaSSIF solubility pH 6.5
[13] = test system: T. gondii bradyzoites (EGS strain); test: EGS strain bradyzoite (cyst) assay in HFF; assay type: cell-based, Toxoplasma gondii
Protocol: as §1
HFF cells were grown in IMDM (1x, [+] glutamine, [+] 25 mM HEPES, [+] Phenol red, 10% FBS, [Gibco, Denmark]) on removable, sterile glass disks in the bottom of a clear, flat-bottomed 24-well plate. Cultures were infected with 3 × 10^4 parasites (EGS strain) per well, in 0.5 mL media and plate was returned to incubator at 37 °C overnight. The following day, the media was removed and clear IMDM and compounds were added to making various concentrations of the drug, to a total volume of 0.5 mL. Two wells were filled with media only, as a control. Plates were returned to the 37 °C incubator for 72 hours.
Efficacy was determined following fixation. Staining was used to determine the numbers of cysts in cultures without and with treatment with the test compounds. Cells were fixed using 4% paraformaldehyde and stained with Fluorescein-labeled Dolichos Biflorus Agglutinin, DAPI, and anti-BAG1, and anti-SAG1. Disks were removed and mounted onto glass slides and visualized using microscopy (Nikon Tl7). Slides were also scanned using a CRi Pannoramic Scan Whole Slide Scanner and viewed using Pannoramic Viewer Software.

CC1(C)N=C(N)N=C(N)N1c1ccc(Cl)cc1 [cycloguanil]
interaction in combination with MJM170 [1]: additive effect
FIC CYG ([1]; ratio 2:8): 0.036 ± 0.01
FIC CYG ([1]; ratio 4:6): 0.089 ± 0.03
FIC CYG ([1]; ratio 6:4): 0.2 ± 0.05
FIC CYG ([1]; ratio 8:2): 0.41 ± 0.003

O=C1C(O)=C([C@H]2CC[C@H](c3ccc(Cl)cc3)CC2)C(=O)c2ccccc21 [Atovaquone, atovaquone]
interaction in combination with MJM170 [1]: Slight synergy; also recorded: modest synergy
interaction in combination with MJM170 ([1]; listed as atovoquone): modestly synergistic
FIC ATV ([1]; ratio 2:8): 0.82 ± 0.05
FIC ATV ([1]; ratio 4:6): 0.72 ± 0.1
FIC ATV ([1]; ratio 6:4): 0.52 ± 0.1
FIC ATV ([1]; ratio 8:2): 0.35 ± 0.06
effect on cyst burden in mice [2]: partially, and transiently, limits cyst burden in mice
EC50 ([3]; DD2, Dd2): 0.461 ± 0.14 nM
EC50 ([3]; DD2, Dd2-attB): 1.11 ± 0.27 nM
EC50 ([3]; DD2, Dd2-scDHODH): > 50 nM
EC50 ([3]; DD2, Dd2: G33A): 0.365 ± 0.053 nM
EC50 ([3]; DD2, Dd2: G33V): 3.85 ± 7.1 nM
EC50 ([3]; DD2, Dd2: G131S): 0.479 ± 0.17 nM

Cc1[nH]c2ccccc2c(=O)c1-c1ccc(Oc2ccc(OC(F)(F)F)cc2)cc1 [ELQ 271]
IC50 [4]: 30 nM
activity against yeast with a mutation in the Qi site [5]: ineffective
growth inhibition of wild type yeast [6]: effective
mouse microsomal stability [7]: > 200 min
half-life ([7]; mouse, mouse microsomes): > 3.33 h
solubility kinetic [8]: 0.15 µM (≈ 0.0617 µg/mL)
effect on brain cyst numbers in mice ([2]; mouse model, listed as ELQ271): partially reduce cyst numbers in mice
effect on brain cyst numbers in mice ([2]; mouse model; listed as ELQ) 271): reduce, but not eliminate, brain cyst numbers in mice
IC50 ([9]; C2B strain, multi-drug resistant, pronounced resistance to atovaquone): 130 nM
IC50 ([9]; D6 strain (Sierra Leone), drug sensitive): 30 nM
IC50 ([9]; TM91C235 strain (Thailand), multi-drug resistant): 90 nM
IC50 ([9]; W2 strain (Thailand), chloroquine resistant): 100 nM
half-life ([10]; human, human microsomes): 2.87 h
human microsomal stability ([10]; rounded): 172 min
CC50 at 72 h [11]: 20000 nM
solubility [12]: 3.4 µM (≈ 1.4 µg/mL)
effect on EGS bradyzoites in cysts in vitro [13]: inhibited EGS in vitro
effect on EGS cysts in vitro ([13]; 10 μM): reduce the EGS cysts in vitro
IC50 ([13]; Toxoplasma gondii, EGS strain cysts in HFF): 1000 nM

C[C@H]1[C@H](OC(=O)CCC(=O)O)O[C@@H]2O[C@@]3(C)CC[C@H]4[C@H](C)CC[C@@H]1[C@@]24OO3 [Artesunate]
EC50 ([3]; DD2, Dd2): 2.95 ± 0.94 nM
EC50 ([3]; DD2, Dd2-attB): 4.4 ± 2.3 nM
EC50 ([3]; DD2, Dd2-scDHODH): 3.97 ± 2.3 nM
EC50 ([3]; DD2, Dd2: G33A): 2.53 ± 0.69 nM
EC50 ([3]; DD2, Dd2: G33V): 2.08 ± 1.4 nM
EC50 ([3]; DD2, Dd2: G131S): 3.38 ± 0.48 nM
